Experimental data as given in ChEMBL document CHEMBL3045988, “Computational and thermodynamic analyses of the phospholipase A2 inhibition by erucic acid and linoleic acid” (Med Chem Res, 2013).

Target: Phospholipase A2 (Sus scrofa) (UniProt P00592+P04416)
Assay: Binding affinity to Sus scrofa (pig) PLA2 isolated from pancreas by isothermal titration calorimetric analysis
Type: protein assay

Phospholipase A2 (Sus scrofa), sequence (P00592 whole entry, looked up): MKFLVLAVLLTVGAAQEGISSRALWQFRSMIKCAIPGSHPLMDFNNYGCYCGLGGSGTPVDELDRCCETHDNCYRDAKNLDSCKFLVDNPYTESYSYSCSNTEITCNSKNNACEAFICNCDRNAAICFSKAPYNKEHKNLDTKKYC
Phospholipase A2 (Sus scrofa), sequence (P04416 whole entry, looked up): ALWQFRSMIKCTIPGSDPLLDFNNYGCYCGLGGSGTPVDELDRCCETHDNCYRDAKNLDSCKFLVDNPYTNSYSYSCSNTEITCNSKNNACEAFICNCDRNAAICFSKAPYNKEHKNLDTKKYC

Row | K | SMILES
1 | 23.3 ×10⁴ /M | CCCCCCCC/C=C\CCCCCCCCCCCC(=O)O
2 | 1.15 ×10⁴ /M | CCCCC/C=C\C/C=C\CCCCCCCC(=O)O
